# Target: T1, AR-F764L (Homo sapiens, UniProt P10275, F765L)
# T1 construct: expressed in transfected cells
# T1 sequence (P10275 1-920 F765L): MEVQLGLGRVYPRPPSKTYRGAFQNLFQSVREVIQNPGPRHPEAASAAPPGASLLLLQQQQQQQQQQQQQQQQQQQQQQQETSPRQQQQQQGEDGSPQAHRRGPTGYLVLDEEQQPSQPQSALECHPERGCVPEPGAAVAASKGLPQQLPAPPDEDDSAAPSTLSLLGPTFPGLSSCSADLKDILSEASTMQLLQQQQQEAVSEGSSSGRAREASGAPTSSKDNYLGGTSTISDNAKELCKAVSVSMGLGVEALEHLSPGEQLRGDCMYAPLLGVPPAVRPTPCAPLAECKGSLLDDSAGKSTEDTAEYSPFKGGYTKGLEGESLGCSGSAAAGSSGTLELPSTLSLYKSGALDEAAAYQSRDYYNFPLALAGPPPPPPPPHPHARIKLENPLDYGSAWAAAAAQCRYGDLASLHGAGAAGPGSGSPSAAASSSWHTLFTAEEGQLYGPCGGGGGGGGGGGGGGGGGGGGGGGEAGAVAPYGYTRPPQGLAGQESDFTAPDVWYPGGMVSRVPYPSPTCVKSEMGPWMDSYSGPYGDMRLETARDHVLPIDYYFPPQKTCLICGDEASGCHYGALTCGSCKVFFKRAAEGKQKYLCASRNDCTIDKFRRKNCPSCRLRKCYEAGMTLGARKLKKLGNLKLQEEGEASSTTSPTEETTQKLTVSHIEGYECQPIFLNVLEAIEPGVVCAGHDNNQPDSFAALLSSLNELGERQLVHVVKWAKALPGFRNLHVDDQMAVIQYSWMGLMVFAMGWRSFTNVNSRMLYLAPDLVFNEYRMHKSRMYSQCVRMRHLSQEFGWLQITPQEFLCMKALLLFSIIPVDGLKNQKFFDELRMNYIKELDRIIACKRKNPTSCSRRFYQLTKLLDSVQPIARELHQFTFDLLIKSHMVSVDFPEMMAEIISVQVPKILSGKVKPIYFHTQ
# Type: cell-based
# Experimental: To determine the global effect of the various AIS mutations on AR signaling, each was analyzed using HCA. This technology allows simultaneous quantification of AR protein expression, nuclear translocation, subnuclear patterning, and transcriptional activity. The analysis was done in HeLa cell lines stably transfected with wild type or mutant ARs fused with green fluorescent protein, or using AR immunofluorescence in primary cultures of genital skin fibroblasts generated from foreskin biopsies of historical AIS patients, or of normal neonates undergoing circumcision at birth. To prevent the effects of receptor over-expression, stable HeLa cells were carefully selected to express AR levels similar to LNCaP as previously described. Prior to ligand treatment, HeLa cells were transfected with the pARR2PB-dsRED2skl reporter plasmid, consisting of the AR responsive promoter ARR2PB [31] driving expression of the red fluorescent protein reporter dsRED2skl engineered to target peroxisomes.
# For studies utilizing HeLa GFP-AR cell lines, twenty-four hours before transfection with pARR2PB-dsRED2skl, cells were plated onto 100 mm plastic dishes in medium supplemented with 5% charcoal-stripped and dialyzed-FBS. Transient introduction of the pARR-2PB-dsRED2skl reporter construct was performed using 6.0 µg reporter plasmid and 6.0 µg carrier DNA (BlueScript, Stratagene, San Diego, CA) using Transfectin (Biorad) following standard protocols. After 8-hour incubation, DNA/lipid complexes were removed. Cells were then trypsinized and replated at 10,000 cells per well in Nunc poly-D-lysine treated 96-well optical glass bottom plates and incubated an additional 12 hours to allow for cell adhesion. […] Compound dilutions and final addition to multi-well plates were performed using a Beckman Biomek NX robotic platform to ensure repeatability from experiment to experiment. After incubation was complete, using the Biomek NX robot, plates were washed with PBS and fixed for 20 min at RT in 4% formaldehyde prepared in CSK buffer (80 mM potassium PIPES, pH 6.8, 5 mM EGTA, 2 mM MgCl2). After fixation, cells were briefly permeabilized (5 min) with 0.5% Triton-X and prepared for imaging by washing in PBS, aspirating the washed solution, and adding a 1 ng/ml DAPI solution to stain DNA and a generic protein stain (CellMask, Invitrogen) to facilitate cell and nuclear image segmentation. Cells were imaged in PBS.
# Cells were imaged using the Cell Lab IC-100 Image Cytometer (IC-100; Beckman Coulter) platform that consists of 1) Nikon Eclipse TE2000-U Inverted Microscope (Nikon; Melville, NY); 2) Chroma 82000 triple band filter set (Chroma; Brattleboro, VT); 3) an imaging camera: Hamamatsu ORCA-ER Digital CCD camera (Hamamatsu; Bridgewater, NJ); and 4) a focusing camera: Photonics COHU Progressive scan camera (Photonics; Oxford, MA). […] In general, 49 to 64 images were captured per well for image analysis.
# While our initial AR studies using HTM were based upon CytoShop (Beckman-Coulter), [15], [33], these approaches were refined in the current work with the more robust server-client Pipeline Pilot image analysis platform (Basic and Advanced Imagine Collections, Pipeline Pilot 7.5, Accelrys, San Diego). Initially, the background signal was removed from all images using plate- and channel-specific correction images, generated by the sum projection of >600 randomly selected images for each channel from the image set. This allows for a pixel-by-pixel background subtraction that compensates any consistent uneven background artifacts in the image set. Furthermore, users are able to customize the degree of background subtraction by applying a multiplier to each correction image, useful for identification of objects such as nuclei or cell borders. After background subtraction, nuclear masks were generated using a combination of non-linear least squares and watershed-from-markers image manipulations of the DAPI images (Fig. 1B).
smiles,measurement,setting,value
"C[C@@H]1CC2=CC(=O)CC[C@@H]2[C@H]2CC[C@@]3(C)[C@@H](CC[C@]3(C)O)[C@@H]21 [Mb, Mibolerone]","recovery of AR-F764 activity, % of control","AR-F764L, discussion, test not specified",45%
same,hyperspeckling response,HeLa AR-F764L,132 fold increase
same,induction of transcriptional activity,HeLa AR-F764L,36 fold
same,increase in the percent of nuclear GFP signal,"HeLa AR-F764L, vs untreated",31%
same,"Nuclear Translocation, Max","HeLa F764L, % signal present in the nucleus",73.2±0.8%
same,"Hyperspeckling, Max","HeLa F764L, absolute numerical measurement",965±8
same,"Transcriptional Activity, Max","HeLa F764L, pARR2PB-dsRED2skl reporter, absolute numerical measurement",92.9±2.2

# Source: paper PMC2785468, “Androgen Receptor Mutations Associated with Androgen Insensitivity Syndrome: A High Content Analysis Approach Leading to Personalized Medicine” (PLoS ONE, 2009)
